Data reported in patent publication EP1669379B1, “3,5-DIMETHYL-1-ADAMANTYL-AMMONIUM POLYMERIC SALTS AND THE USE THEREOF IN THE FORM OF ANTIVIRAL AGENTS” (priority 2003, dated 2005).
Where a name gives a salt, the structure may show the parent alone. Read-outs that look alike come from different tables or passages of the source.

What was measured:
[1] = test system: influenza virus of B type; settings: statement with reference to USSR author's certificates; cited from earlier work
[2] = acute toxicity, single oral administration to mice (LD50); settings: both sexes, Balb, mouse, in vivo
Experimental: The toxicity level of claimed compounds was assessed according to a general index of acute toxicity - average fatal dose of LD50. The study was held with a single oral administration of the agent to white mice of both sexes, line "Balb", weight 18 - 20 g, and to white rats, line "Vistar", weight 130 - 250 g (female) and 225 - 370 g (male). The medications were administered to mice in the dose range from 250 to 1100 mg/kg, and to rats in the range of 480 - 2315 mg/kg.

[3] = test system: virus of the influenza of the type A/Victoria35/72; format: cell-based; settings: CAC model; dose 25.0 mcg/ml as calculated per equimolecular content of DMAAM
[4] = test system: virus of the influenza A/Li/40; experiment: antiviral activity in tissue culture of chorionallantoic coat fragments (CAC model), A/Li/40; format: cell-based, chick-embryos; settings: dose 25.0 mcg/ml as calculated per equimolecular content of DMAAM
Experimental: (§1) The tests of antiviral activity of produced polymeric salts were conducted against the viruses of types A and B influenza using the tissue culture of chorionallantoic coat fragments from chick-embryos (model CAC) and infecting animals (mice).

[5] = test system: virus of the influenza B/Li/40; experiment: antiviral activity in infected mice, medical and preventive treatment scheme, oral; format: in vivo; settings: single dose 50 mg/ml as calculated per equimolecular content of DMAAM, administration frequency 5
Experimental: as §1
(§2) In each experimental and control (placebo) group 20 mice of both sexes were infected.

[6] = test system: influenza A/Aichi/2/68 virus; experiment: duration of antiviral activity in infected mice, preventive application scheme, single oral dose; format: in vivo; settings: for Protection index of medication (%) when administered in specified periods (hours) before contamination: mice, single oral dose 100mg/kg as calculated per equimolecular DMAAM content
Experimental: as §1, §2

[7] = test system: influenza virus of B type; experiment: summary statement on activity against influenza virus of B type; settings: conclusion from the tables; protection index less than 20 is considered inactive
Text: At the same time synthesized (claimed) polymeric compounds of 3.5-dimethyl-1-adamantylamine have an effective level of antiviral activity against the influenza virus of B type, both in the infection model of chick-embryo and mice.

solubility (qualitative) = format: physicochemical

Q: For CC(N)C12CC3CC(CC(C3)C1)C2.Cl (stereo not drawn) [remantadin, hydrochloride α-methyl-α-(1-adamantyl)methylamine], which “antiviral activity against the influenza virus of B type” value (from here on “antiviral activity”) [1] is on record?
A: is not effective

Q: With CC12CC3CC(C)(C1)CC(N)(C3)C2 [HC - DMAAM (memantine), hydrochloride 3.5-dimethyl-1-adamantylamine] as the compound, how does the LD50 [2] read?
A: 363 mg/kg

Q: And the “Protection index of the medication, %” value [3]?
A: 39%

Q: And the “Protection index of the medication, %” value [4]?
A: 0%

Q: And the “Protection index of medication, %” value [5]?
A: 7.1%

Q: What about the “The number of animals Died, %” value [5] of the same compound?
A: 65%

Q: What about the “The number of animals Died, Animal units” value [5] of the same compound?
A: 13

Q: And the “Protection index of medication (%) when administered in specified periods (hours) before contamination” value (shortened to “Protection index of medication (%)”) ([6]; 1 hour before contamination)?
A: 37%

Q: What about the “Protection index of medication (%)” value ([6]; 24 hours before contamination) of the same compound?
A: 28%

Q: What about the “Protection index of medication (%)” value ([6]; 48 hours before contamination) of the same compound?
A: 22%

Q: What about the “Protection index of medication (%)” value ([6]; 72 hours before contamination) of the same compound?
A: 11%

Q: What about the “Protection index of medication (%)” value ([6]; 96 hours before contamination) of the same compound?
A: 9%

Q: And the “Protection index of medication (%)” value ([6]; 120 hours before contamination)?
A: 7%

Q: And the “time of administration before infection at which the medication was effective” value ([6]; prevention scheme, same dose as calculated per 3.5-dimethyl-1-adamantylamine content)?
A: 24 h

Q: And the “antiviral activity” value [7]?
A: is not effective

Q: With Cl.NC12CC3CC(CC(C3)C1)C2 [midantan, hydrochloride 1-adamatilamine] as the compound, how does the “antiviral activity” value [1] read?
A: is not effective

Q: For CC12CC3CC(C)(C1)CC(N)(C3)C2 [3.5-dimethyl-l-adamantylamine, 3.5-dimethyl-1-adamantylamine], which solubility in water (solubility (qualitative)) is on record?
A: insoluble in water
